Measurements from ChEMBL document CHEMBL1134866, “Design, synthesis, and biological evaluation of novel, centrally-acting thyrotropin-releasing hormone analogues” (2002).

The molecules below were run on Mus musculus (assay: Compound was intravenously injected into Swiss Webstar mice tail vein, the sleeping time was recorded as the time elapsed from the loss of righting reflex).
Assay type: functional

SMILES	Sleeping time
NC(=O)C1=CN(CCC[C@H](NC(=O)[C@@H]2CCC(=O)N2)C(=O)N2CCC[C@H]2C(N)=O)C=CC1	~59 min
NC(=O)C1=CN(CCCCC(NC(=O)[C@@H]2CCC(=O)N2)C(=O)N2CCC[C@H]2C(N)=O)C=CC1 (some centres undefined)	~47 min
NC(=O)C1=CN(C[C@H](NC(=O)[C@@H]2CCC(=O)N2)C(=O)N2CCC[C@H]2C(N)=O)C=CC1	19.3 min
NC(=O)C1=CN(CCC(NC(=O)[C@@H]2CCC(=O)N2)C(=O)N2CCC[C@H]2C(N)=O)C=CC1 (some centres undefined)	~45 min
